Each molecule was assayed against T1, human PAD4 (Homo sapiens, UniProt Q9UM07) (assay: In vitro PAD4 BAEE biochemical assay). Details: BAEE substrate 3 mM, 5 nM PAD4, 2 mM calcium chloride; geometric mean of multiple experiments.
T1 construct: human PAD4 (NM_012387), A2-P663, was PCR amplified; His-SUMO (N, cleaved yes); made in house; host or cells: E. coli BL21(DE3)
How it was run: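 Fluorescence read-out (ex 405/em 535 nm) of isoindole formed from ammonia, o-phthalaldehyde and DTT after EDTA stop. Reaction: 5 nM PAD4, 2 mM CaCl2, 3 mM BAEE, 2 h, 25 °C, after 30 min enzyme–compound preincubation. Normalised to BB-Cl-Amidine (50 µM) and DMSO controls.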

T1 sequence (Q9UM07 2-663): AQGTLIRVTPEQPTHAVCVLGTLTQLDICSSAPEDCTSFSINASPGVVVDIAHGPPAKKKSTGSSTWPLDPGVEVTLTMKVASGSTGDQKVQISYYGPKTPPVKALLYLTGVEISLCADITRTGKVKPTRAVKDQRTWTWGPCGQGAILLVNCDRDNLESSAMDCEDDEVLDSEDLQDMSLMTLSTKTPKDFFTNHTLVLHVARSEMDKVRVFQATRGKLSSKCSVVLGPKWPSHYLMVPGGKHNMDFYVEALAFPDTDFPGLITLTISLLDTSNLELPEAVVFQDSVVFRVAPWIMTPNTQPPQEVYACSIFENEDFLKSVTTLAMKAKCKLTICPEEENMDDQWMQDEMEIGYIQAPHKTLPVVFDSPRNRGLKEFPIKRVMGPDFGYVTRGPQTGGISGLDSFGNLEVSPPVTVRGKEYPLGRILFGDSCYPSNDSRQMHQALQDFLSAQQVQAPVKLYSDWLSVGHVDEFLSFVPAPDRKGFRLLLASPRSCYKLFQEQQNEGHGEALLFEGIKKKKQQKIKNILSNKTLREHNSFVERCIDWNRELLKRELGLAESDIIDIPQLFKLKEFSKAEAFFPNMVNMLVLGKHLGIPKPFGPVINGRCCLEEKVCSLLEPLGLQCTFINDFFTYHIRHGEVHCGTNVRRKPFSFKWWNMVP

**Q.** For `COc1cc(C(=O)N2CC[C@@H](OC)[C@@H](N)C2)cc2nc(-c3cc4ccc5nc4n3CCCCCCNC(=O)c3ncccc3-5)n(C)c12` [Example 675, 17-[5-[(3~{S},4~{R})-3-amino-4-methoxy-piperidine-1-carbonyl]-7-methoxy-1-methyl-benzimidazol-2-yl]-6,9,16,22-tetrazatetracyclo [14.5.2.0^{2,7}.0^{19,23}] tricosa-1(22),2,4,6,17,19(23), 20-heptaen-8-one], which IC50 is on record?
**A.** 559 nM

**Q.** With `COc1cc(C(=O)N2CC[C@@H](C)[C@@H](N)[C@@H]2C)cc2nc(-c3cc4ccc5nc4n3CC(F)(F)CCC[C@@H]3C[C@H]3C(=O)N[C@@H]5C)n(C)c12` [Example 676, (2~{R},5~{R},7~{R})-14-[5-[(2~{S},3~{R},4~ {R})-3-amino-2,4-dimethyl-piperidine-1-carbonyl]-7-methoxy-1-methyl-benzimidazol-2-yl]-11,11-difluoro-2-methyl-3,13,19-triazatetracyclo[11.5.2.0^ {5,7}.0^{16,20}] icosa-1(19),14,16(20), 17-tetraen-4-one] as the molecule, how does the IC50 read?
**A.** 83 nM

**Q.** `COC[C@H]1CCN(C(=O)c2cc(OC)c3c(c2)nc(-c2cc4ccc5nc4n2CCCCCCC(C)(C)C(=O)N[C@@H]5C)n3C)C[C@@H]1N` [Example 677, (11~{R})-17-[5-[(3~ {R},4~{S})-3-amino-4-(methoxymethyl)piperidine-1-carbonyl]-7-methoxy-1-methyl-benzimidazol-2-yl]-8,8,11-trimethyl-1,10,19-triazatricyclo [10.5.2.0^{15,18}] nonadeca-12(19),13,15 (18),16-tetraen-9-one] was tested. Which IC50 did it give?
**A.** 82 nM

**Q.** With `COc1cc(C(=O)N2C[C@H](N)[C@H](O)[C@@H](F)C2)cc2nc(-c3cc4ccc5nc4n3CC(F)(F)CCC[C@@H]3C[C@H]3C(=O)N[C@@H]5C)n(C)c12` [Example 678, (2~{R},5~{R},7~{R})-14-[5-[(3~{S},4~{S},5~ {S})-3-amino-5-fluoro-4-hydroxy-piperidine-1-carbonyl]-7-methoxy-1-methyl-benzimidazol-2-yl]-11,11-difluoro-2-methyl-3,13,19-triazatetracyclo[11.5.2.0^ {5,7}.0^{16,20}]icosa-1(19), 14,16(20),17-tetraen-4-one] as the molecule, how does the IC50 read?
**A.** 15 nM

**Q.** Which IC50 does the source give for `COc1cc(C(=O)N2CCC[C@@H](N)[C@H]2C)cc2nc(-c3cc4ccc5nc4n3CC(F)(F)CCCc3cncc(F)c3C(=O)N[C@@H]5C)n(C)c12` [Example 679, (2~{R})-17-[5-[(2~{R},3~ {R})-3-amino-2-methyl-piperidine-1-carbonyl]-7-methoxy-1-methyl-benzimidazol-2-yl]-6,14,14-trifluoro-2-methyl-3,8,16,22-tetrazatetracyclo[14.5.2.0^ {5,10).0^{19,23}] tricosa-1(22),5(10),6,8,17, 19(23),20-heptaen-4-one] here?
**A.** 33 nM

**Q.** How did the IC50 turn out when `COc1cc(C(=O)N2CC[C@@H](O)[C@@H](N)C2)cc2nc(-c3cc4ccc5nc4n3CC(F)(F)CCC[C@@H]3C[C@H]3C(=O)N[C@@H]5C)n(C)c12` [Example 680, (2~{R},5~{R},7~{R})-14-[5-[(3~{S},4~{R})-3-amino-4-hydroxy-piperidine-1-carbonyl]-7-methoxy-1-methyl-benzimidazol-2-yl]-11,11-difluoro-2-methyl-3,13,19-triazatetracyclo[11.5.2.0^ {5,7}.0^{16,20}]icosa-1(19), 14,16(20),17-tetraen-4-one] was run?
**A.** 34 nM

**Q.** How did the IC50 turn out when `COc1cc(C(=O)N2C[C@H](N)[C@H](OC)[C@@H](F)C2)cc2nc(-c3cc4ccc5nc4n3CC(F)(F)CCC[C@@H]3C[C@H]3C(=O)N[C@@H]5C)n(C)c12` [Example 681, (2~{R},5~{R},7~{R})-14-[5-[(3~{S},4~{S}, 5~{S})-3-amino-5-fluoro-4-methoxy-piperidine-1-carbonyl]-7-methoxy-1-methyl-benzimidazol-2-yl]-11,11-difluoro-2-methyl-3,13,19-triazatetracyclo [11.5.2.0^{5,7}.0^{16,20}] icosa-1(19),14,16(20), 17-tetraen-4-one] was run?
**A.** 39 nM

**Q.** For `C[C@H]1NC(=O)[C@@H]2C[C@@H]2CCCC(F)(F)Cn2c(-c3nc4cc(C(=O)N5C[C@H](N)[C@@H]6CC[C@H]5C6)cc(F)c4n3C3CC3)cc3ccc1nc32` [Example 682, (2~{R},5~{R},7~{S})-14-[5-[(1~{S},4~{R},5~{R})-4-amino-2-azabicyclo[3.2.1]octane-2-carbonyl]-1-cyclopropyl-7-fluoro-benzimidazol-2-yl]-11,11-difluoro-2-methyl-3,13,19-triazatetracyclo[11.5.2.0^ {5,7}.0^{16,20}] icosa-1(19),14,16(20), 17-tetraen-4-one], which IC50 is on record?
**A.** 28 nM

**Q.** For `C[C@@H]1c2ccc3cc(-c4nc5cc(C(=O)N6C[C@H](N)[C@@H]7CC[C@H]6C7)cc(F)c5n4C4CC4)n(c3n2)CC(F)(F)CCC[C@H]2C[C@H]2C(=O)N1C` [Example 683, (2~{R},5~{R},7~{S})-14-[5-[(1~{S},4~{R},5~ {R})-4-amino-2-azabicyclo[3.2.1]octane-2-carbonyl]-1-cyclopropyl-7-fluoro-benzimidazol-2-yl]-11,11-difluoro-2,3-dimethyl-3,13,19-triazatetracyclo [11.5.2.0^{5,7}.0^{16,20}] icosa-1(19),14,16(20), 17-tetraen-4-one], which IC50 is on record?
**A.** 16 nM

**Q.** `C[C@H]1NC(=O)C(C)(C)CCCCCn2c(-c3nc4cc(C(=O)N5C[C@H](N)[C@@H]6CC[C@H]5C6)cc(F)c4n3C3CC3)cc3ccc1nc32` [Example 684, (10~{R})-16-[5-[(1~{S}, 4~{R},5~{R})-4-amino-2-azabicyclo [3.2.1]octane-2-carbonyl]-1-cyclopropyl-7-fluoro-benzimidazol-2-yl]-7,7,10-trimethyl-1,9,18-triazatricyclo[9.5.2.0^ {14,17}]octadeca-11(18), 12,14(17),15-tetraen-8-one] was tested. Which IC50 did it give?
**A.** 20 nM

**Q.** `COc1ccc2c(n1)CCCCCn1c(-c3nc4cc(C(=O)N5C[C@H](N)[C@@H]6CC[C@H]5C6)cc(F)c4n3C3CC3)cc3ccc(nc31)[C@@H](C)NC2=O` [Example 685, (2~{R})-17-[5-[(1~{S},4~{R}, 5~{R})-4-amino-2-azabicyclo[3.2.1]octane-2-carbonyl]-1-cyclopropyl-7-fluoro-benzimidazol-2-yl]-8-methoxy-2-methyl-3,9,16,22-tetrazatetracyclo [14.5.2.0^{5,10}.0^{19, 23}]tricosa-1(22),5(10), 6,8,17,19(23),20-heptaen-4-one] was tested. Which IC50 did it give?
**A.** 13 nM

**Q.** With `COc1cc(C(=O)N2CC[C@@H](OC)[C@@H](N)C2)cc2nc(-c3cc4ccc5nc4n3CCCCCC[C@]3(CCCO3)C(=O)N[C@@H]5C)n(C)c12` [Example 686, (8~{S},11~{R})-17-[5-[(3~{S},4~{R})-3-amino-4-methoxy-piperidine-1-carbonyl]-7-methoxy-1-methyl-benzimidazol-2-yl]-11-methyl-spiro[1,10,19-triazatricyclo [10.5.2.0^{15,18}]nonadeca-12(19),13,15(18),16-tetraene-8,2′-tetrahydrofuran]-9-one] as the molecule, how does the IC50 read?
**A.** 44 nM

**Q.** Which IC50 does the source give for `COc1cc(C(=O)N2CC[C@@H](OC)[C@@H](N)C2)cc2nc(-c3cc4ccc5nc4n3CCCCCC[C@@]3(CCCO3)C(=O)N[C@@H]5C)n(C)c12` [Example 687, (8~{R},11~{R})-17-[5-[(3~{S),4~{R})-3-amino-4-methoxy-piperidine-1-carbonyl]-7-methoxy-1-methyl-benzimidazol-2-yl]-11-methyl-spiro[1,10,19-triazatricyclo[10.5.2.0^ {15,18}]nonadeca-12(19),13,15(18),16-tetraene-8,2′-tetrahydrofuran]-9-one] here?
**A.** 64 nM

**Q.** With `COc1cc(C(=O)N2CC[C@@H](OC)[C@@H](N)C2)cc2nc(-c3cc4ccc5nc4n3CCCCC[C@H]3C[C@]3(F)C(=O)N[C@@H]5C)n(C)c12` [Example 688, (2~{R},5~{R},7~{S})-14-[5-[(3~{S},4~{R})-3-amino-4-methoxy-piperidine-1-carbonyl]-7-methoxy-1-methyl-benzimidazol-2-yl]-5-fluoro-2-methyl-3,13,19-triazatetracyclo[11.5.2.0^ {5,7}.0^{16,20}]icosa-1(19), 14,16(20),17-tetraen-4-one] as the molecule, how does the IC50 read?
**A.** 719 nM

**Q.** `COc1cc(C(=O)N2CC[C@@H](OC)[C@@H](N)C2)cc2nc(-c3cc4ccc5nc4n3CCCCC[C@]3(F)C[C@H]3C(=O)N[C@@H]5C)n(C)c12` [Example 689, (2~{R},5~{S},7~{S})-14-[5-[(3~{S},4~{R})-3-amino-4-methoxy-piperidine-1-carbonyl]-7-methoxy-1-methyl-benzimidazol-2-yl]-7-fluoro-2-methyl-3,13,19-triazatetracyclo[11.5.2.0^ {5,7}.0^{16,20}]icosa-1(19),14,16(20),17-tetraen-4-one] was tested. Which IC50 did it give?
**A.** 39 nM

**Q.** How did the IC50 turn out when `CO[C@@H]1CCN(C(=O)c2ccc3c(c2)nc(-c2cc4ccc5nc4n2CC(F)(F)CCC[C@@H]2C[C@H]2C(=O)N[C@@H]5C)n3C2CC2)C[C@@H]1N` [Example 690, (2~{R},5~{R},7~{R})-14-[5-[(3~{S},4~{R})-3-amino-4-methoxy-piperidine-1-carbonyl]-1-cyclopropyl-benzimidazol-2-yl]-11,11-difluoro-2-methyl-3,13,19-triazatetracyclo [11.5.2.0^{5,7}.0^{16,20}] icosa-1(19),14,16(20), 17-tetraen-4-one] was run?
**A.** 54 nM

**Q.** With `CO[C@@H]1CCN(C(=O)c2ccc3c(c2)nc(-c2cc4ccc5nc4n2CCCCC[C@@H]2C[C@H]2C(=O)N[C@@H]5C)n3C2CC2)C[C@@H]1N` [Example 691, (2~{R},5~{R},7~{R})-14-[5-[(3~{S},4~{R})-3-amino-4-methoxy-piperidine-1-carbonyl]-1-cyclopropyl-benzimidazol-2-yl]-2-methyl-3,13,19-triazatetracyclo[11.5.2.0^ {5,7}.0^{16,20}]icosa-1(19),14,16(20),17-tetraen-4-one] as the molecule, how does the IC50 read?
**A.** 33 nM
